Measured values: the OligoGym collection
“And” between values parts separate entries of the source, which are not always exact repeats. Equal values may be shown once. After the bases stand the sugars from the 5' end (letter, count) and the backbone: PS all phosphorothioate, else s phosphorothioate and o phosphodiester by linkage. Methylation of C is not given here. e = 2'-O-(2-methoxyethyl) (MOE); k = constrained ethyl (cEt); d = 2'-deoxy (DNA)

Biological target: IRF4
Conditions: ASO

Row | Sequence | target mRNA inhibition (SK-MEL-28, 4 µM) [%] | target mRNA inhibition (MM.1R, 1 µM) | further results
1 | TAATAATGCTTGCAAG (sugars k3 d10 k3, PS) | 12 |  | 
2 | TAATACCTACCTGCCC (sugars k3 d10 k3, PS) | 4 |  | 
3 | TAATAGTAAGTTCTAG (sugars k3 d10 k3, PS) | 0 |  | 
4 | TAATCTGTATAGTTCT (sugars k3 d10 k3, PS) |  | 42% | 
5 | TAATGTAGGGATACAG (sugars k3 d10 k3, PS) | 78 |  | 
6 | TAATTCTCCTATGCTG (sugars k3 d10 k3, PS) |  | 3% | 
7 | TACAAAACGGACTGGA (sugars k3 d10 k3, PS) | 38 |  | 
8 | TACACTTTGTACGGGT (sugars k3 d10 k3, PS) | 28 |  | 
9 | TACATCACTGCAGTTC (sugars k3 d10 k3, PS) | 68 |  | 
10 | TACCATATTGGAAACC (sugars k3 d10 k3, PS) | 48 |  | 
11 | TACCGCATTGCTAGAT (sugars k3 d10 k3, PS) | 23 |  | 
12 | TACGAGAGGGTCTGAT (sugars k3 d10 k3, PS) | 0 |  | 
13 | TACTAGATTGTAGGAC (sugars k3 d10 k3, PS) | 27 |  | 
14 | TACTGCTGTACTTTCT (sugars k3 d10 k3, PS) | 43 |  | 
15 | TACTGCTTGAGGTTTT (sugars kdddddddddkekeke, PS) |  | 14% | 
16 | TACTGCTTGAGGTTTT (sugars kkdddddddddekeke, PS) |  | 18% | 
17 | TACTGCTTGAGGTTTT (sugars kkdddddddddkekek, PS) |  | 22% | 
18 | TACTGTTACCGATGCT (sugars k2 d9 e3 k2, PS) |  | 29% and 8% | 
19 | TACTGTTACCGATGCT (sugars kddddddddddkekek, PS) |  | 10% and 2% | 
20 | TACTGTTACCGATGCT (sugars kkdddddddddkdkdk, PS) |  | 7% and 18% | 
21 | TACTTGGACAGAAGGG (sugars k3 d10 k3, PS) | 62 |  | 
22 | TAGAAAGCCCTCACCT (sugars k3 d10 k3, PS) | 5 |  | 
23 | TAGAGAACATTACGAG (sugars k3 d10 k3, PS) | 60 |  | 
24 | TAGATAACATGAGAGT (sugars k3 d10 k3, PS) | 50 |  | 

Row | Sequence | target mRNA inhibition (SK-MEL-28, 4 µM) [%] | target mRNA inhibition (MM.1R, 1 µM) | further results
25 | TAGATTCTCCCTGCAC (sugars k3 d10 k3, PS) |  | 18% | 
26 | TAGCAGAGGTTCTACC (sugars k3 d10 k3, PS) | 26 |  | 
27 | TAGCATTATCTACCTC (sugars k3 d10 k3, PS) | 66 |  | 
28 | TAGCATTCTTACAGCA (sugars k3 d10 k3, PS) | 57 | 7% and 20% | target mRNA inhibition (MM.1R, 0.0625 µM): -4% and 15%; target mRNA inhibition (MM.1R, 0.074 µM): 0%; target mRNA inhibition (MM.1R, 0.222 µM): 34%; target mRNA inhibition (MM.1R, 0.25 µM): -7% and -4%; target mRNA inhibition (MM.1R, 0.666 µM): 27%; target mRNA inhibition (MM.1R, 2 µM): 52%; target mRNA inhibition (MM.1R, 4 µM): 26% and 40%
29 | TAGGAAGCACTGGCAT (sugars k3 d10 k3, PS) | 28 |  | 
30 | TAGGATAATATACCCC (sugars k3 d10 k3, PS) | 74 |  | 
31 | TAGGTAAGATCTCCAT (sugars k3 d10 k3, PS) |  | 35% and 33% | 
32 | TAGTAGACCACAGTGA (sugars k3 d10 k3, PS) | 9 |  | 
33 | TAGTATGAGAAACGGC (sugars k3 d9 k3 e1, PS) |  | 48% | 
34 | TAGTATGAGAAACGGC (sugars kkkdddddddddkeke, PS) |  | 62% | target mRNA inhibition (MM.1R, 0.074 µM): 8%; target mRNA inhibition (MM.1R, 0.222 µM): 29%; target mRNA inhibition (MM.1R, 0.666 µM): 50%; target mRNA inhibition (MM.1R, 2 µM): 71%
35 | TAGTCGCGCAAGTCTA (sugars k3 d10 k3, PS) | -8 |  | 
36 | TAGTTGTCTGGCTAGC (sugars k3 d10 k3, PS) |  | 32% and 33% | target mRNA inhibition (MM.1R, 0.0625 µM): 4% and 7%; target mRNA inhibition (MM.1R, 0.25 µM): 16% and 24%; target mRNA inhibition (MM.1R, 4 µM): 68%
37 | TATAACCGGTAGAGTG (sugars k3 d10 k3, PS) | 21 |  | 
38 | TATAACTTCTCCTGTG (sugars k3 d10 k3, PS) |  | 7% | 
39 | TATAATTGGCACGAGG (sugars k3 d10 k3, PS) | 41 |  | 
40 | TATCAAGACAAGGAAT (sugars k3 d10 k3, PS) | 7 |  | 
41 | TATCCATTAGAAAAGC (sugars k3 d10 k3, PS) | 63 |  | 
42 | TATGGCTAAACCTGGC (sugars k3 d10 k3, PS) | 43 |  | 
43 | TATTACTCTTAGGCAC (sugars k3 d10 k3, PS) | 44 |  | 
44 | TATTTGTTTGCAAGCT (sugars k3 d10 k3, PS) |  | 30% | 
45 | TCAAAAGGTAGTAGAC (sugars k3 d10 k3, PS) | 29 |  | 
46 | TCAATGATGGCAGTCT (sugars k3 d10 k3, PS) | 54 |  | 
47 | TCAATGGGAATCACAG (sugars k3 d10 k3, PS) | 40 |  | 
48 | TCACAGGTAAGGGCCC (sugars k3 d10 k3, PS) | 47 |  | 
